Here are results for one compound from patent US11351178B2, “Selective HDAC6 inhibitors” (ITALFARMACO S.P.A., priority 2017, dated 2022).

The test system of one data set is CT26 tumor. Nature of the data set: CT-26 murine model, single agents and combination with anti PD-1 (FIG. 3). It is filed as in vivo, BALB/c mice. As for the experimental part: FIG. 3: HDAC6 inhibitors reduces CT-26 tumor growth in vivo and their activity can be improved by combined treatment with anti PD-1 antibody. Statistics was evaluated at day 30 by Student's t test. *, P<0.05; **, P<0.01; ***, P<0.001. See text for further details. […] Adult BALB/c mice were injected s.c. with 1×10^6 CT26 tumor cells (diluted to 100 ul with phosphate-buffered saline). One week later, mice were given daily compounds 8 and 10 p.o. at 50 mg/Kg and/or injected with anti-PD1 antibody at 10 mg/Kg. At time of sacrifice, spleens were taken to analyze ex vivo, the tumor immune response. Spleen cells were stimulated with a mixture of CT-26 tumor specific peptides recognized in the context of both MHC I and MHC II. Thus, using this ex vivo stimulation, a specific tumor response mediated by CD4 and CD8 T cells can be detected.

Data set [1] can be described thus: Pharmacokinetics after single intravenous and oral administration to the mouse.
Procedure: Plasma levels and main pharmacokinetic parameters of test compounds were evaluated after single intravenous and oral administration to the mouse.
The formulations were prepared in a mixture of DMSO/PEG400/H2O. Blood was collected at the following sampling times: 5, 10, 15, 30 minutes, 1, 2, 4 and 6 hours after administration. Plasma samples (100 μL) were deproteinized by addition of 1% formic acid in ACN, then vortex mixed and centrifuged. For each sample, an aliquot of the supernatant was collected and diluted with water, filtered with 0.45 μm regenerated cellulose filter and analysed by LC-MS/MS. Plasma levels of the test compounds were calculated on a calibration curve prepared in the range 0.5-200 ng/mL.
Pharmacokinetic parameters were calculated on the mean plasma concentration curve using the software Kinetica™ v.

A word on the Cmax: it is the maximum level reached in the sampled fluid or tissue. Usually Tmax stands for the time at which the peak concentration occurs. Broadly, the bioavailability is dose-corrected exposure relative to a reference, in per cent. High values mean good availability, low ones poor availability. As for `Cn1c(Sc2ccc(C(=O)NO)cc2)nnc1-c1cccs1` [comp. 10, N-hydroxy-4-((4-methyl-5-(thiophen-2-yl)-4H-1,2,4-triazol-3-yl)thio)benzamide], the “CT-26 tumor growth inhibition, combination with anti PD-1 antibody” value with CT26 tumor (compound p.o. 50 mg/Kg plus anti-PD1 antibody 10 mg/Kg) is given as “further improves tumor growth inhibition”. Besides, the “CT-26 tumor growth/progression, single agent” value in the data set on CT26 tumor (p.o. 50 mg/Kg daily) is reported as “significantly reduce CT-26 tumor progression”. Besides, in data set [1] (Os, dose 5.2 mg/kg), the AUCtot worked out at 123 ng·h/mL, the maximum concentration (Cmax) was 144 ng/mL and the time of peak concentration (Tmax) was found to be 15 min. Besides, in data set [1] (i.v., dose […]), the T1/2 came out at 78 min and the Vd was 20.5 L/kg. In addition, in data set [1] (in vivo, po, 5.2 mg/kg), the bioavailability worked out at 25.8%.
